Reference: US10188693B2, “Methods for treatment of atherosclerosis” (Stealth BioTherapeutics Corp, priority 2012, dated 2019)
Where “and” joins values, the source holds several entries; their conditions need not be identical. Equal values may be shown once.

Assays:
[1] = tested on: Apoprotein E deficient mice; assay: Thoracic aorta lipids (Bligh-Dyer extraction, WAKO kits; TC, FC, CE per mg protein); type: in vivo; settings: 12 weeks
Excerpt: (§1) Apoprotein E deficient mice (Jackson Laboratories, 600 Main Street, Bar Harbor, Me.) were used in this study. The mice were male, 7-8 weeks of age, and between 18-20 g in weight. An initial total cholesterol measurement was made on 30 mice, and the mice were grouped into two groups of 15 to match the total cholesterol measurements. Both groups were fed a “western diet” (40 kcal % butterfat, 0.15% [wt/wt] cholesterol, Harlan Teklad diet TD-88137). Starting at t=0, the control group of 15 mice received vehicle only (phosphate buffered saline at pH 7.4), while the test group of 15 mice received aromatic-cationic peptide reconstituted in phosphate buffered saline. Body weights of the mice were recorded weekly, and mortality checks were performed daily.
(§2) The aromatic-cationic peptide D-Arg-2′6′-Dmt-Lys-Phe-NH2 (sterile lyophilized powder, reconstituted in phosphate buffered saline) was tested. For the 12-week study, test mice received a single, daily dose of the peptide, subcutaneously at 1 mg/kg. Control mice received a single daily dose of vehicle.
Histopathology/Histomorphometery: Following the 12 week treatment, mice were euthanized within 48 hours after the last dose by CO2 asphyxiation and the vascular tree was perfused with 5 mL of phosphate buffered saline (pH 7.4). The aorta and aortic sinus were removed for examination. Thoracic aorta were isolated, trimmed of fat, and fixed in formalin for 48-72 hours before analysis. For en face analysis, aortas were laid out and pinned on black matrix for photography, and stained with Sudan IV. Vessels were imaged for surface involvement using a Nikon computerized image analysis system and the percent of the aortic surface area covered by lipid was calculated. Two determinations were done for each image (Quan 1 and Quan 2), and the average was computed. The data were then computed by group and statistically analyzed. Following staining and morphometric analysis, total lipids were extracted from the aortas using the Bligh-Dyer method. WAKO Diagnostics kits (WAKO Diagnostics, Inc., 1600 Bellwood Road Richmond, Va. 23237-1326) were then used to evaluate total cholesterol, free cholesterol, and cholesterol ester. Cholesterol leves were quantitate nad expressed relative to protein levels. Values are expressed as μg lipid per mg protein (see e.g., FIG. 1).

[2] = tested on: Apoprotein E deficient mice; assay: Plasma lipid analysis using an autoanalyzer (TC, Trigs, PL, FC, CE by calculation); type: in vivo; design: TC, plasma / FC, plasma / CE, plasma / Trigs, plasma / PL, plasma / TC / FC / CE / Trigs / PL: unit not given here; settings: for CE: plasma cholesterol ester; for FC: plasma free cholesterol; for PL: plasma phospholipid
Excerpt: as §1, §2
Experimental Protocol/Data Collection. Blood was collected every four weeks (orbital plexis) under isoflurane anesthesia (3%) and blood lipids were determined. Plasma lipid analysis was conducted for both groups at t=0, 4, […], 8, and 12 weeks. Plasma lipid analysis using an autoanalyzer included total cholesterol (TC), triglycerides (Trigs), phospholipids (PL), free cholesterol (FC), and cholesterol ester (CE, by calculation). Gel electrophoresis was used to measure levels of high-density lipoprotein cholesterol (HDL-C), low-density lipoprotein cholesterol (LDL-C), and very low-density lipoprotein cholesterol (VLDL-C).

[3] = group average, 1 mg/kg subcutaneously daily
[4] = individual mouse, 1 mg/kg subcutaneously daily, μg lipid per mg protein, listed as Peptide, 1 mg/kg
[5] = treated versus vehicle, listed as aromatic-cationic peptide
[6] = Week 0 (t=0, start of dosing), individual mouse of test group
[7] = Week 0, group average of test group
[8] = at 4, 8 and 12 week time points, versus vehicle
[9] = week 4, individual test mouse (sample #16-30), listed as aromatic-cationic peptide
[10] = week 8, individual test mouse (sample #16-30), listed as aromatic-cationic peptide
[11] = week 12, AVE of 15 test animals
[12] = week 12, individual test mouse (sample #16-30), listed as aromatic-cationic peptide

D-Arg-2′6′-Dmt-Lys-Phe-NH2
CE (cholesterol ester), thoracic aorta, AVE [1, 3]: 14.6 µg/mg | FC (free cholesterol), thoracic aorta, AVE [1, 3]: 5.7 µg/mg | TC (total cholesterol), thoracic aorta, AVE [1, 3]: 20.4 µg/mg | CE (cholesterol ester), thoracic aorta [1, 4]: 13.8 μg/mg and 2.7 μg/mg and 30.3 μg/mg and 14.7 μg/mg and 30.7 μg/mg and 14.1 μg/mg and 4.6 μg/mg (2×) and 5.6 μg/mg (2×) and 28.5 μg/mg and 21.3 μg/mg and 18.6 μg/mg and 11.4 μg/mg and 13.0 μg/mg | FC (free cholesterol), thoracic aorta [1, 4]: 7.6 μg/mg (2×) and 4.0 μg/mg and 5.1 μg/mg and 3.0 μg/mg (2×) and 8.1 μg/mg and 2.7 μg/mg and 3.5 μg/mg and 14.6 μg/mg and 6.6 μg/mg and 3.8 μg/mg and 3.6 μg/mg and 3.3 μg/mg and 9.5 μg/mg | TC (total cholesterol), thoracic aorta [1, 4]: 21.4 µg/mg and 6.7 µg/mg and 35.4 µg/mg and 17.7 µg/mg and 38.8 µg/mg and 16.8 µg/mg and 8.1 µg/mg and 20.1 µg/mg and 35.1 µg/mg and 9.4 µg/mg and 24.9 µg/mg and 21.7 µg/mg and 7.9 µg/mg and 19.0 µg/mg and 22.5 µg/mg | cholesterol esters in the thoracic aorta, in words [1, 5]: lower | free cholesterol in the thoracic aorta, in words [1, 5]: lower | total cholesterol in the thoracic aorta, in words [1, 5]: lower | FC, plasma [2, 6]: 119 and 121 and 134 (2×) and 110 and 116 and 131 and 129 and 184 and 113 and 139 and 170 and 151 and 159 and 220 | PL, plasma [2, 6]: 267 (3×) and 308 and 255 and 306 and 298 and 369 and 238 and 320 and 313 and 332 and 343 and 338 and 413 | TC, plasma [2, 6]: 302 (2×) and 318 and 376 and 323 and 335 and 369 and 550 and 309 and 409 and 431 and 552 and 457 and 490 and 808 | Trigs, plasma [2, 6]: 75 and 88 (3×) and 117 and 96 and 71 and 138 and 167 and 136 and 151 and 191 and 188 and 154 and 353 | CE, plasma ([2]; Week 0 (t=0, start of dosing), individual mouse of test group, by calculation): 183 and 197 and 242 and 192 and 207 and 204 and 240 and 366 and 196 and 270 and 297 and 382 and 306 and 331 and 588 | FC, plasma, AVE [2, 7]: 142 | PL, plasma, AVE [2, 7]: 309 | TC, plasma, AVE [2, 7]: 422 | Trigs, plasma, AVE [2, 7]: 140 | CE, plasma, AVE ([2]; Week 0, group average of test group, by calculation): 280 | plasma cholesterol ester, in words [2, 8]: reduces | plasma free cholesterol, in words [2, 8]: reduces | plasma phospholipid levels, in words [2, 8]: reduces | plasma total cholesterol, in words [2, 8]: reduces | plasma triglycerides, in words [2, 8]: reduces | CE ([2]; week 4, AVE of 15 test animals): 610 | CE [2, 9]: 491 and 580 and 622 and 731 and 626 and 417 and 574 and 660 and 515 and 536 and 630 and 761 and 581 and 732 and 701 | CE ([2]; week 8, AVE of 15 test animals): 932 | CE [2, 10]: 940 and 710 and 1119 and 865 and 1153 and 653 and 714 and 1085 and 715 and 670 and 1073 and 1048 and 839 and 1130 and 1267 | CE [2, 11]: 681 | CE [2, 12]: 607 and 335 and 597 and 640 and 1002 and 477 and 445 and 476 and 675 and 687 and 960 and 869 and 339 and 904 and 1201 | FC ([2]; week 4, AVE of 15 test animals): 387 | FC [2, 9]: 308 and 344 and 354 (2×) and 408 and 412 and 256 and 366 and 386 and 320 and 286 and 396 and 462 and 516 and 636 | FC ([2]; week 8, AVE of 15 test animals): 350 | FC [2, 10]: 322 and 294 (2×) and 386 and 318 and 392 and 290 and 388 and 308 (2×) and 286 and 362 and 366 and 404 and 530 | FC [2, 11]: 322 | FC [2, 12]: 291 and 205 and 287 and 296 and 418 and 242 and 229 and 269 and 315 and 312 and 419 and 386 and 219 and 413 and 535 | PL ([2]; week 4, AVE of 15 test animals): 514 | PL [2, 9]: 422 and 482 and 452 and 560 and 526 and 320 and 506 and 556 and 446 and 416 and 516 and 580 and 510 and 666 and 750 | PL ([2]; week 8, AVE of 15 test animals): 493 | PL [2, 10]: 416 and 456 and 474 and 448 and 516 (2×) and 424 and 480 and 488 and 436 and 440 and 556 and 470 and 540 and 728
